Laboratory results: ChEMBL document CHEMBL1268984, “N-Substituted acetamidines and 2-methylimidazole derivatives as selective inhibitors of neuronal nitric oxide synthase” (Bioorg Med Chem Lett, 2010)

How the values were obtained:
[1] = Selectivity ratio, ratio of IC50 for bovine eNOS to IC50 for rat brain nNOS
Nitric oxide synthase 1 = Nitric oxide synthase 1 (Rattus norvegicus, UniProt P29476); test: Inhibition of rat brain nNOS assessed as nitric oxide mediated oxidation of oxyhemoglobin to methemoglobin
[2] = target: T1, Nitric oxide synthase, inducible (Mus musculus, UniProt P29477); test: Inhibition of mouse macrophage iNOS assessed as nitric oxide mediated oxidation of oxyhemoglobin to methemoglobin
T1 sequence (P29477 whole entry): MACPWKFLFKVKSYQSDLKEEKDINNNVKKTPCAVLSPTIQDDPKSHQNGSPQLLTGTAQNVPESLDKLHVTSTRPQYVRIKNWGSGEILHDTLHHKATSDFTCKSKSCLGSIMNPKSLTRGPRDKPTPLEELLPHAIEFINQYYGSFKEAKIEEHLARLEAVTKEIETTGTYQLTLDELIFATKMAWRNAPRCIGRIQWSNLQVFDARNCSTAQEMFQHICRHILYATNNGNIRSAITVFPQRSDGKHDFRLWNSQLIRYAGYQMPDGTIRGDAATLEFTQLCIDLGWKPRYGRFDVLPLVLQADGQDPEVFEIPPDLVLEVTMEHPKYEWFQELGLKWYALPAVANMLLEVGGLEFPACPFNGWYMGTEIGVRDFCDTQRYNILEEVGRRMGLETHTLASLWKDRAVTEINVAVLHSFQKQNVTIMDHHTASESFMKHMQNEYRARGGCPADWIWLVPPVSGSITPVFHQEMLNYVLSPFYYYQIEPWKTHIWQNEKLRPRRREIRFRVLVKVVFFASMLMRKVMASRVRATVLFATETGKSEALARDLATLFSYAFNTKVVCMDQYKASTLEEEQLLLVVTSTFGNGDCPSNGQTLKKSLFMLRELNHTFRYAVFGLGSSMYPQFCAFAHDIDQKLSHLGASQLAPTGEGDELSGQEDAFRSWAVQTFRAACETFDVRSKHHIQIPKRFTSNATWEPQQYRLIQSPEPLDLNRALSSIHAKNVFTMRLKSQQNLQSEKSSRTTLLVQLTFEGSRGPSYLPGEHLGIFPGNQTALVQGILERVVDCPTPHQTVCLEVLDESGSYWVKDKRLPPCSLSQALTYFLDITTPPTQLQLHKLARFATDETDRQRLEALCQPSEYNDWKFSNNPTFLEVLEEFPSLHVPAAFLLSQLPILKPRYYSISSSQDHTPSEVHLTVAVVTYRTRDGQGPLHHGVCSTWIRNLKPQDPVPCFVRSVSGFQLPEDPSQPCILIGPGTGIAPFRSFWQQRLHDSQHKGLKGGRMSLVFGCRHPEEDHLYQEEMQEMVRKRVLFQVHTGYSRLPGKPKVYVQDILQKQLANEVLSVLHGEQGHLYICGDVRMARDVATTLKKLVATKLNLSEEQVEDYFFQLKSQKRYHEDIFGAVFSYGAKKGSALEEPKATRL

[3] = Selectivity ratio, ratio of IC50 for mouse macrophage iNOS to IC50 for rat brain nNOS
Nitric oxide synthase 3 = target: T2, Nitric oxide synthase 3 (Bos taurus, UniProt P29473); test: Inhibition of bovine eNOS assessed as nitric oxide mediated oxidation of oxyhemoglobin to methemoglobin
T2 sequence (P29473 whole entry): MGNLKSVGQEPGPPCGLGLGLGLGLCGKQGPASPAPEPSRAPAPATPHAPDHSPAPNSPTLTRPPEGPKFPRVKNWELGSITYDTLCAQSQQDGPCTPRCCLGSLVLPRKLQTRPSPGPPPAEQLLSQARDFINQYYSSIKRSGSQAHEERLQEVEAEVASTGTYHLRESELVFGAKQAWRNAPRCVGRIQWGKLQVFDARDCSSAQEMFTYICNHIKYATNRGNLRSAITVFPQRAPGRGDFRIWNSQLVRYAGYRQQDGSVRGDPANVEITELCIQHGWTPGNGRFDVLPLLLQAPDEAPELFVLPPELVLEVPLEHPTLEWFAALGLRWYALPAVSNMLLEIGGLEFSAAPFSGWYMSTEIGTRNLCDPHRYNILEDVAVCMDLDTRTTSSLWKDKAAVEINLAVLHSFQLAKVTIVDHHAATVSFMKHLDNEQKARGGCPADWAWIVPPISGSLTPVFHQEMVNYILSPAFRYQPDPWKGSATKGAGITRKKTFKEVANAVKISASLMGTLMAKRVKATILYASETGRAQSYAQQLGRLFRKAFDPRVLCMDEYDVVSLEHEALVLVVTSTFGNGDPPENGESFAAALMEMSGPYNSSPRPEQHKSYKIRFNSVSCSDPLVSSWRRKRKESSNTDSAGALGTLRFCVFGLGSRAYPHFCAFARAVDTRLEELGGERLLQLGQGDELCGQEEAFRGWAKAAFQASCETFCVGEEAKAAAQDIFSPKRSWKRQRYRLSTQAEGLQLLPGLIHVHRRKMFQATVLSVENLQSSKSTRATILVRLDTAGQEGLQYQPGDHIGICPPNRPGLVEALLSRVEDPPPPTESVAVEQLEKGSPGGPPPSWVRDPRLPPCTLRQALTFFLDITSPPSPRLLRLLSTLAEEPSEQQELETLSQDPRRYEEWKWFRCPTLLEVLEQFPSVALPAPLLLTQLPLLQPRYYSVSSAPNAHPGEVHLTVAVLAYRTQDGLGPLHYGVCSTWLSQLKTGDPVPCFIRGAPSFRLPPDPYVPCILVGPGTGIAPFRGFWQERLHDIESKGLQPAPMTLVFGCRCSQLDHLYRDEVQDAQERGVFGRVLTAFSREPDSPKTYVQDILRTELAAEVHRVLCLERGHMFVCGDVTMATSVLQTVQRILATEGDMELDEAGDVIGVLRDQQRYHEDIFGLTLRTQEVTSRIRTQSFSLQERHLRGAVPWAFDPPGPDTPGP

Chain of Nitric oxide synthase 1 (P29476 whole entry): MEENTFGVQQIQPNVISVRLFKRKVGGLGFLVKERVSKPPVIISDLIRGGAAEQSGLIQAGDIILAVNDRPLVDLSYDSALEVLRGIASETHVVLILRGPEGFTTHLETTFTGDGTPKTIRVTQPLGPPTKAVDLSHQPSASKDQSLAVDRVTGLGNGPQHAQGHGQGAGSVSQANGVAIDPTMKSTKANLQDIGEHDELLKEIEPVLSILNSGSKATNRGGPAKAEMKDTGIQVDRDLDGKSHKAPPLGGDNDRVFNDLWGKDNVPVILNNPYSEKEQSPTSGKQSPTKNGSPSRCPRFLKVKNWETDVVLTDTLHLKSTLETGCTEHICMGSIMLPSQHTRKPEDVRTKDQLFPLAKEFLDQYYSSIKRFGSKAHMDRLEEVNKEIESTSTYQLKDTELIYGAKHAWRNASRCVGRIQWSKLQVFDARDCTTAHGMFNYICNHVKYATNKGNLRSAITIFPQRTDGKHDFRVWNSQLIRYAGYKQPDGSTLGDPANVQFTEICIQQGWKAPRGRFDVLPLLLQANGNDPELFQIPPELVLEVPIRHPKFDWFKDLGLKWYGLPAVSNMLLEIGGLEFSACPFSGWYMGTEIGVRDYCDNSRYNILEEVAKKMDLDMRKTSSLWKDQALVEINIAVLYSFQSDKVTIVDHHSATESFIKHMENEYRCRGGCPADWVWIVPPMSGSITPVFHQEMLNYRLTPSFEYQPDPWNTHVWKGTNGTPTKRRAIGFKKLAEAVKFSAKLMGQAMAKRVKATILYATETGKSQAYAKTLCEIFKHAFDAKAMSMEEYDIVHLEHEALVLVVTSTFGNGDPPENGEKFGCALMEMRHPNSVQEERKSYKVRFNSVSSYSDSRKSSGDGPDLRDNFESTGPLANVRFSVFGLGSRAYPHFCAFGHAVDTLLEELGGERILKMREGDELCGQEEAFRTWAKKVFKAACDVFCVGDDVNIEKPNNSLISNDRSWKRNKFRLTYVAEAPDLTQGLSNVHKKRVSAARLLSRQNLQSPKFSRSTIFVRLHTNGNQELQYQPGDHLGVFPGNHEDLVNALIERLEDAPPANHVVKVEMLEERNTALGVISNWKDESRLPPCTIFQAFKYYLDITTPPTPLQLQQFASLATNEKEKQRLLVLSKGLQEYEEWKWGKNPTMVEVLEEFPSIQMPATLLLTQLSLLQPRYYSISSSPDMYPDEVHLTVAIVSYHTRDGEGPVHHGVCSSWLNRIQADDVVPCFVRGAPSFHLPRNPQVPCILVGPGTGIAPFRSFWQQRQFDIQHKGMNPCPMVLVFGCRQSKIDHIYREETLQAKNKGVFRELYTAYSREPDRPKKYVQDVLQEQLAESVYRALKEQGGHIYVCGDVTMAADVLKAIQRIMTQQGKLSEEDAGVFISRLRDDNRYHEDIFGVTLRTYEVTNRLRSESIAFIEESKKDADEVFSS

| Ratio IC50 [1] | IC50 (Nitric oxide synthase 1) | IC50 [2] | Ratio IC50 [3] | IC50 (Nitric oxide synthase 3) | Structure (SMILES) |
| --- | --- | --- | --- | --- | --- |
| 2 | 150 µM | 0.45 µM | 0.003 | 300 µM | CC(=N)N[C@@H](C)c1ccccc1 |
| 16 | 5 µM | 100 µM | 20 | 80 µM | Cc1nccn1C(C)c1ccccc1 (racemic) [EFETOZOLE] |
| 0.9 | 90 µM | 0.25 µM | 0.003 | 80 µM | CCC(NC(C)=N)c1ccccc1 (racemic) |
| 18 | 5 µM | 50 µM | 10 | 90 µM | Cc1nccn1Cc1ccccc1 |
| 1 | 400 µM | 800 µM | 2 | 400 µM | CC(=N)NCc1ccc2c(c1)OCO2 |
| 2.3 | 150 µM | 0.2 µM | 0.013 | 350 µM | CC(=N)NCc1ccccc1 |
| 10 | 10 µM | 50 µM | 5 | 100 µM | COc1cccc(CNC(C)=N)c1 |
| 500 | 0.2 µM | 10 µM | 50 | 100 µM | CC(=N)NC(c1ccccc1)C(C)C (racemic) |
| 1170 | 0.3 µM | 30 µM | 100 | 350 µM | CC(=N)NC(c1ccccc1)c1ccccc1 |
| 20 | 5 µM | 12 µM | 2.4 | 100 µM | Cc1nccn1Cc1ccncc1 |
